From patent publication US12421187B2, “Dihydrofolate synthase (DHFS) inhibiting agents and methods of making and using same” (Washington Univeristy, priority 2022, dated 2025)
≈ marks a conversion by molar mass, not a printed value. Entries after “also recorded” stand apart in the source; their conditions may differ. Where two headings read alike, the source gives them in different places.

Columns and labels:
[1] = target: T1, dihydrofolate synthetase (DHFS) (Escherichia coli, UniProt P08192); experiment: DHFS steady state kinetics inhibition assay (PK/LDH coupled, absorbance at 340 nm, LCMS of product); type: biochemical, E. coli; conditions: for DHFS product detected by LCMS of the reaction mixtures: higher inhibitor concentrations, FIG. 38A-38B
T1 construct: made in house; host or cells: E. coli BL21 (given for HPPK; the other enzymes 'in the same manner')
T1 sequence (P08192 whole entry): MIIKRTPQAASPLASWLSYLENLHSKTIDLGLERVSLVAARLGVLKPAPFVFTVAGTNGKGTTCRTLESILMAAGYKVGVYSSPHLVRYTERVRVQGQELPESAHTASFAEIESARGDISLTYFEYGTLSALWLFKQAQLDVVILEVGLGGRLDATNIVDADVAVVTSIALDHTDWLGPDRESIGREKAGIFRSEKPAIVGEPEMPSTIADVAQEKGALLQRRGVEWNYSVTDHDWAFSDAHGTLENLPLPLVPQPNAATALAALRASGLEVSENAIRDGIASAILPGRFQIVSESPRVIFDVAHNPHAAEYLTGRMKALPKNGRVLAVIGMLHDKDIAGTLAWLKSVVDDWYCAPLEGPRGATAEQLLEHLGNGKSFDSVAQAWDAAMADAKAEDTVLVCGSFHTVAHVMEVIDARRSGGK
Source text: With a suitable DHFS substrate in hand (THFA), conditions to measure the rate of DHFS action were investigated. […] Given none of the substrates or cofactors of DHFS (see e.g., FIG. 19) would be suitable for absorbance change detection, a coupled enzyme reaction with pyruvate kinase/lactate dehydrogenase (PK/LDH) was chosen. In the presence of ADP (in this case produced by DHFS), PK would convert phosphoenolpyruvate (PEP) to pyruvate, reforming ATP in the process (see e.g., FIG. 20A). The pyruvate would then be reduced by LDH in a NADH dependent manner (see e.g., FIG. 20B). The oxidation of NADH to NAD^+ would cause a decrease in absorbance at 340 nm, which can be measured as a rate of DHFS activity as long as the PK/LDH process was not the rate limiting step of the pathway from THFA to NAD^+.
THFA and its associated cofactors (L-Glu, ATP) were dissolved in degassed buffer solution (pH=7.5) to reconstitute DHFS activity with coupling to PK/LDH activity in the presence of excess cosubstrates (PEP, NADH) (see e.g., FIG. 24A). The optical absorbance at 340 nm was measured over time and a steady-state approximation of DHFS rate (7.18 E-5 abs/s) was determined (see e.g., FIG. 24B). Once the reaction had progressed for 20 minutes, 1 M HCl was added to quench the reaction and KCl+MeOH was added to agglutinate the protein and solubilize the pterin-containing metabolites. The vials were heated for 1 h at 70° C. and centrifuged to remove precipitated enzymes. The supernatant solution was spiked with a fixed concentration of Fmoc-alanine as an internal standard for LCMS analysis.
DHFS Steady State Kinetics Inhibition Assay
Stock solutions of all reagents were made using 100 mM Tris-buffer (pH=7.5) an stored in fractions in a −80° C. freezer until use. 1500 μL of a stock solution containing everything (in appropriate amounts to maintain the final concentration calculations for 150 total μL well volume) in the table above except the DHFS and the Tris Buffer+inhibitor was made. Solutions of the Tris Buffer+inhibitor were made so as to achieve final inhibitor concentrations as below. The final concentrations of inhibitor can be adjusted as necessary.
Each necessary well of a quartz 96-well plate was flushed with argon then filled (in triplicate) with 69.75 μL of stock solution and 75.75 μL of Tris Buffer+Inhibitor solution. The quartz plate was incubated at 37° C. for 10 minutes then 4.5 μL of DHFS stock solution was quickly added to each well except well 6, to which 4.5 μL of Tris-buffer was added. The quartz plate was put in a plate reader at 37° C. and the optical absorbance at 340 nm was read every 10 seconds for 20 min. The apparent reaction rate for absorbance decrease was measured from between 0-5 min. Each well was combined with their triplicate partners and the solutions were centrifuge filtered through a molecular weight cutoff (MWCO) to remove any enzymes. The solutions were spiked with enough Fmoc-ala to bring the final concentration to 50 μM (moc-ala then run on an LCMS with single ion monitoring methods to detect the various oxidation states of THEA and Glu-THFA.
An alternative method is as follows: After the 20-minute optical absorbance reading, the triplicate solutions were combined then diluted with 200 μL MeOH and an amount of KCl in H2O to bring the final concentration of KCl to 20 mM. The solutions were then incubated at 70° C. for 1 h. […]

E. coli = experiment: Whole cell antibacterial susceptibility test, bacterial growth curves in 96-well plate; type: cell-based
Method: Bacterial growth curves were determined for E. coli using two compounds—inhibitor 4.10 and trimethoprim (positive control). A 96-well plate format was used to achieve serial dilution of the test compounds and included a DMSO control to simulate the concentration of DMSO required to solubilize the test compounds in the growth medium (not shown).

E. coli ATC 25922 = experiment: Agar diffusion antibacterial susceptibility assay; type: cell-based; conditions: for zone of inhibition at 3520 µg/mL / zone of inhibition at 15000 µg/mL: Escherichia coli; for zone of inhibition at 15000 µg/mL: 15 mg/mL in DMSO
Method: Inhibitor 4.10 was also used alongside sulfamethoxazole and trimethoprim and in combination with sulfamethoxazole and trimethoprim respectively, in an agar diffusion antibacterial susceptibility assay (see e.g., FIG. 41 and TABLE 11).
An overnight culture of E. coli ATC 25922 was grown in 5 mL of LB broth. 22 g of Mueller Hinton II broth powder and 15 g of agar were dissolved in 1 L of dd-H2O and autoclaved. The MH II agar broth was cooled to 47° C. and 35 mL of MH II agar broth was inoculated with 100 μL of OD600=0.1 E. coli from the overnight culture. The inoculated agar was plated and once cool enough, 10 wells were cut out using a vacuum. Each well was filled with 50 μL DMSO solutions as below and the plates were left in an incubator at 37° C. for 18 h. The zones of inhibition were measured for each well.

DHFS = target: T2, DHFS (Escherichia coli, UniProt P08192); experiment: Protein mass spectrometry of DHFS incubated with inhibitor (covalent adduct search); parameters: species or system E. coli; conditions: 0, 40, 400 μM inhibitor, 20 μM DHFS, 37° C., 1 hour
T2 construct: made in house; host or cells: E. coli BL21 (given for HPPK; the other enzymes 'in the same manner')
T2 sequence (P08192 whole entry): as above
Source text: If DHFS is indeed phosphorylating the 3-hydroxyl group of the 3-HβL warhead, then why was it not detected by LCMS analysis? The possibility was considered that the higher concentrations of compound 4.10 resulting in 100% DHFS inhibition might be consistent with covalent modification of the enzyme by the inhibitor. This could happen by a variety of different mechanisms including the canonical β-lactam suicide inhibition mechanism through acylation of nucleophilic amino acid side chains. However, there is a potentially novel mechanism at play when considering the reactivity of an activated benzylic position of para-aniline derivatives. The presence of a leaving group at the benzylic position of para-anilines results in the formation of reactive quinone-imine-methide species. If the 3-hydroxy group of inhibitor 4.10 is phosphorylated in the DHFS active site, it could serve as a leaving group leading to spontaneous formation of a quinone-imine-methide that might react with nearby amino acid side chains. This transformation could also take place within the mass spec, making detection of the phosphorylated inhibitor impossible (see e.g., FIG. 39). […] The LCMS samples were also analyzed for the presence of a reaction product between the 3-HβL and L-Glu, but no masses which could match this description were found. […]

[2] = target: T3, dihydropteroate synthase (DHPS) (Escherichia coli, UniProt P0AC13); experiment: HPPK/DHPS/DHFR steady state kinetics inhibition assay (NADPH consumption, absorbance at 340 nm); type: biochemical, E. coli
T3 construct: made in house; host or cells: E. coli BL21 (given for HPPK; the other enzymes 'in the same manner')
T3 sequence (P0AC13 whole entry): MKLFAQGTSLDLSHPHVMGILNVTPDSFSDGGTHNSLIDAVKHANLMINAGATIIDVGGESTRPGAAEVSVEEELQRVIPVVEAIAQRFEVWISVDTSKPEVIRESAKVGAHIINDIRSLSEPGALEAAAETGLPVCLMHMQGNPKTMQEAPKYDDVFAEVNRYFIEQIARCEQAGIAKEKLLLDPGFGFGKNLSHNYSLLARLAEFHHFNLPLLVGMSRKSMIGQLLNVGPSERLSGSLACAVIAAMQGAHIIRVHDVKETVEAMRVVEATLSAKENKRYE
Method: (§1) DHFR would only reduce dihydropteroic acid, not 6-hydroxymethyl-7,8-dihydropterin, and as long as the DHFR rate was not slower than the DHPS rate, then the rate limiting step of DHPS is represented by the decrease in absorbance at 340 nm overtime.
(§2) HPPK, DHPS, DHFR and all their associated cosubstrates (ATP, PABA, NADPH) were combined in suitable buffer conditions (pH=7.5) and the optical absorbance at 340 nm was measured over time (see e.g., FIG. 21A).
HPPK/DHPS/DHFR Steady State Kinetics Inhibition
Stock solutions of all reagents were made using 100 mM Tris-buffer (pH=7.5) and stored in fractions in a −80° C. freezer until use (see e.g., TABLE 6).
An assay stock solution containing everything except the HPPK/DHPS/DHFR solution and the Tris buffer+Inhibitor was made and 88.5 μL was distributed to each well (in triplicate) of a quartz 96-well plate to be used. […] 7.5 μL of the enzyme solution containing HPPK/DHPS/DHFR was added to each well and the plate was put into a UV/Vis plate reader and incubated at 37° C. while the optical absorbance at 340 nm was read every 10 s for 1 h. The apparent reaction 1-9 rate for absorbance decrease was measured from between 0-5 min.

[3] = target: T3, dihydropteroate synthase (DHPS); experiment: HPPK/DHPS/DHFR steady state kinetics with PABA or 3-HβL as DHPS substrate; type: biochemical, E. coli
Method: as §1, §2
HPPK/DHPS/DHFR Steady State Kinetics
Stock solutions of all reagents were made using 100 mM Tris buffer (pH=7.5) and stored in fractions in a −80° C. freezer until use (see e.g., TABLE 5).
An assay stock solution containing everything except the enzymes was made and 142.5 μL was distributed to each well (6 total) on a quartz 96-well plate that had been flushed with argon. To each of the first three wells was then added 7.5 μL of the enzyme solution containing HPPK/DHPS/DHFR, and to each of the last 3 wells was added 7.5 μL of 100 mM Tris-buffer. The 96-well plate was put into a UV/Vis plate reader and incubated at 37° C. while the optical absorbance at nm was read every 10 s for 1 h. The apparent reaction rate for absorbance decrease was measured from between 0-5 min. Each well was combined with their triplicate partners and the solutions were centrifuge filtered through a molecular weight cutoff (MWCO) to remove any enzymes. The solutions then run on an LCMS with single ion monitoring methods to detect the various oxidation states of products.
HPPK/DHPS/DHFR Steady State Kinetics with a 3-HG3L as a Substrate Stock solutions of all reagents were made using 100 mM Tris buffer (pH=7.5) and stored in fractions in a −80° C. freezer until use (see e.g., TABLE 7).
An assay stock solution containing everything except the enzymes was made and 142.5 μL was distributed to each well (6 total) on a quartz 96-well plate that had been flushed with argon. To each of the first three wells was then added 7.5 μL of the enzyme solution containing HPPK/DHPS/DHFR, and to each of the last 3 wells was added 7.5 μL of 100 mM Tris-buffer. The 96-well plate was put into a UV/Vis plate reader and incubated at 37° C. while the optical absorbance at nm was read every 10 s for 1 h. The apparent reaction rate for absorbance decrease was measured from between 0-5 min. Each well was combined with 1-0 their triplicate partners and the solutions were centrifuge filtered through a molecular weight cutoff (MWCO) to remove any enzymes. The solutions then run on an LCMS with single ion monitoring methods to detect the various oxidation states of products.

[4] = ATC25922, 3.52 mg/mL in DMSO, 50 μL per well, 37° C., 18 h, read-out: Zone of Inhibition
[5] = ATC25922, 50 μL per well, 37° C., 18 h

Nc1nc(N)c2nc(CNc3ccc(C4(O)CNC4=O)cc3)cnc2n1 (stereo not shown) [Compound 4.10, 3-(4-(((2,4-diaminopteridin-6-yl)methyl)amino)phenyl)-3-hydroxyazetidin-2-one]
Dose-dependent inhibition of DHFS (in words) [1]: dose-dependent inhibitory response
DHFS rate inhibition ([1]; at higher (double digit micromolar) concentrations): ~100%
DHFS product detected by LCMS of the reaction mixtures [1]: no product detected
Inhibition of bacterial growth (in words) (E. coli; serial dilution, compared with DMSO control): No significant inhibition of bacterial growth
Bacterial growth inhibition in agar diffusion (in words) (E. coli ATC 25922; E. coli): no bacterial growth inhibition was observed; also recorded: no apparent effect on E. coli growth
Synergistic effect in combination with sulfamethoxazole or trimethoprim (in words) (E. coli ATC 25922; E. coli): No apparent synergistic effect
zone of inhibition at 3520 µg/mL (E. coli ATC 25922; ATC25922, 18 h): 0 mm
3-HβL-DHFS covalent adducts by protein mass spectrometry (in words) (DHFS): no apparent peaks corresponding to DHFS+334 mass units; also recorded: no 3-HβL—DHFS adducts formed

Cc1cc(NS(=O)(=O)c2ccc(N)cc2)no1 [sulfamethoxazole]
Bacterial growth inhibition in agar diffusion (in words) (E. coli ATC 25922; E. coli): clear zones of bacterial growth inhibition
zone of inhibition at 3520 µg/mL (E. coli ATC 25922; [4]): 23.2 mm
zone of inhibition at 15000 µg/mL (E. coli ATC 25922; [5]): 25.9 mm

COc1cc(Cc2cnc(N)nc2N)cc(OC)c1OC [trimethoprim]
MIC (E. coli; Escherichia coli, read-out: MIC (minimum inhibitory concentration)): 2 µM (≈ 0.581 µg/mL)
Bacterial growth inhibition in agar diffusion (in words) (E. coli ATC 25922; E. coli): clear zones of bacterial growth inhibition
zone of inhibition at 3520 µg/mL (E. coli ATC 25922; [4]): 39.6 mm
zone of inhibition at 15000 µg/mL (E. coli ATC 25922; [5]): 45.3 mm

Nc1ncc(CNc2ccc(C3(O)CNC3=O)cc2)c(N)n1 (stereo not shown) [Compound 4.6, 3-(4-(((2,4-diaminopyrimidin-5-yl)methyl)amino)phenyl)-3-hydroxyazetidin-2-one]
Dose-dependent inhibition of DHFS (in words) [1]: no apparent dose dependent inhibition of DHFS

Nc1ccc(C2(O)CNC2=O)cc1 (stereo not shown) [Compound 2.44, 3-(4-aminophenyl)-3-hydroxyazetidin-2-one]
Inhibition of DHPS (in words) [2]: not an inhibitor of DHPS
Substrate of DHPS, rate as substrate (in words) [3]: substrate of DHPS
Substrate of DHPS, rate as substrate (in words) ([3]; listed as 3-(para-NH2-phenyl)-3-HβL): substrate
Substrate of DHPS, rate as substrate (in words) ([3]; listed as BVD-3-7): slower

Nc1ccc(C(=O)O)cc1 [PABA, p-amino-benzoic acid, reference compound]
Substrate of DHPS, rate as substrate (in words) [3]: faster

NCC(O)(C(=O)O)c1ccc(NCc2cnc3nc(N)nc(N)c3n2)cc1 (stereo not shown) [Compound 4.12, 3-amino-2-(4-(((2,4-diaminopteridin-6-yl)methyl)amino)phenyl)-2-hydroxypropanoic acid]
DHFS product detected by LCMS of the reaction mixtures [1]: still showed some product
